The text below walks through data of US20150087610A1, “Method of Modifying Fertility” (Monell Chemical Senses Center, priority 2012, published 2015).

“Also recorded” adds a separate entry of the source.

Assay [1] has as its system mouse spermatids. As to the kind of experiment: Calcium imaging of mouse spermatids with bitter tastants. Type of assay: cell-based. Particulars: Mus musculus, read-out: EC50 of calcium response. As for the experimental part:
Eight adult male mice of each genotype: C57BL/6 and Gnat^−/− mice, were sacrificed, and the testis and caudal epididymis were immediately removed and transferred into HS solution containing (mM): 135 NaCl, 5 KCl, 2 CaCl2, 1 MgCl2, 30 Hepes, 10 glucose, 10 lactic acid, and 1 pyruvic acid (pH adjusted to 7.4 with NaOH) (Xia et al., 2007). For isolation of spermatids, seminiferous tubules from mouse testicle were dissected out and placed in a […] containing 3 ml of HS medium. The tissue was finely minced and gently triturated with a fire-polished pipette, and the mixture was filtered with a 100 μm nylon cell strainer (BD Falcon, Bedford, Mass.). The dissociated cells were collected in a 1.5 ml plastic tube, and washed once in HS medium by centrifugation at 300 g for 4 min and resuspended in HS medium.
(§1) Mouse spermatogenic cells were loaded with 5 μM acetoxymethylester of Fura-2 (Fora-2/AM) and 80 μg/ml pluronic F127 (Molecular Probes, Eugene, Oreg.) and transferred onto coverslips (22×60 mm, No. 0, Thomas Scientific Co.) for at least 1 hour at room temperature. The coverslip with spermatogenic cells was mounted in a recording chamber and superfused with HS or HS containing tasting compounds or the bitter blocker probenecid (Sigma-Aldrich, St. Louis, Mo.) via a valve controller (VC-8, Warner, USA).
(§2) Imaging of calcium responses was conducted as previously described (Gomez et al, 2005). Stimulation duration was 30 seconds and perfusion rate was 0.8 ml/min. Cells were excited at 340 nm and 380 nm and signals at 510 nm were captured by a cooled CCD camera. The change in fluorescence ratio (F=F340/F380) was recorded for regions-of-interest drawn on the cells.
To analyze the dose-dependent calcium responses, the response intensity (FN) was normalized and expressed as ΔF/F0 value: ΔF/F0=(F−F0)/F0. Here F0 is the fluorescence at the beginning of stimulation, i.e., time 0, and F is the peak fluorescence ratio evoked by the stimulation. Dose-response curves and EC50 values were generated based on the normalized responses using the software Origins by nonlinear regression.

For assay [2], the target named is T1, human T2r14 (Homo sapiens, UniProt Q9NYV8).
T1 sequence (Q9NYV8 1-317): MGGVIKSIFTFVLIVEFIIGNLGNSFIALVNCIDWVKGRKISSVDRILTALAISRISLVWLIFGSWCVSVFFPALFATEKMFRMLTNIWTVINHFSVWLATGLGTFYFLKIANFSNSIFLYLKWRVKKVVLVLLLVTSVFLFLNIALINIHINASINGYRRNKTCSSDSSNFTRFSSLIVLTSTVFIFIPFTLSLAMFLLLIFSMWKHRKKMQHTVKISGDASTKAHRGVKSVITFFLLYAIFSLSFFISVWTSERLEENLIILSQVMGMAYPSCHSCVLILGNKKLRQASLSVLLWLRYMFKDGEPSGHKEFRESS
As to conditions: heterologously expressed, most sensitive of five human T2rs; cited from earlier work.

Assay [3] deals with T2, human T2R38 (Homo sapiens, UniProt P59533).
T2 sequence (P59533 1-333): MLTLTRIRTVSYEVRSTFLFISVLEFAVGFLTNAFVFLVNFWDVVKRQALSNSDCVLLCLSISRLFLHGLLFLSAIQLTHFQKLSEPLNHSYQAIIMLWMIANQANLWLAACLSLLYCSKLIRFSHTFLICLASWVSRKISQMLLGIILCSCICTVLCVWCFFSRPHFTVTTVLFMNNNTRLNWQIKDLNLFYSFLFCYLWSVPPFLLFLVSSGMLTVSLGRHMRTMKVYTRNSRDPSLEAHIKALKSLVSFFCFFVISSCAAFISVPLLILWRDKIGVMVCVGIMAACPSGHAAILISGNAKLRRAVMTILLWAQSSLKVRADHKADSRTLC
As to conditions: response to PTC and PROP; cited from earlier work.

Assay [4] deals with T3, human T2R43 (Homo sapiens, UniProt P59537).
T3 sequence (P59537 1-309): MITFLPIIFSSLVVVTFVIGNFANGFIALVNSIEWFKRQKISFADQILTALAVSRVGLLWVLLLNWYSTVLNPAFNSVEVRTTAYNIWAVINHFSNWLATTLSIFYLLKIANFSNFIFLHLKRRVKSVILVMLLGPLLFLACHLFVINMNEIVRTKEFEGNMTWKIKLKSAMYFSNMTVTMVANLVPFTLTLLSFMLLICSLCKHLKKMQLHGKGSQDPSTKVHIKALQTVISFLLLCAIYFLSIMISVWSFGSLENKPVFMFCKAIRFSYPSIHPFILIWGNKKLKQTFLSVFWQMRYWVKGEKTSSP
Particulars: response to aloin; cited from earlier work.

Assay [5] has as its target T4, human T2R16 (Homo sapiens, UniProt Q9NYV7).
T4 sequence (Q9NYV7 1-291): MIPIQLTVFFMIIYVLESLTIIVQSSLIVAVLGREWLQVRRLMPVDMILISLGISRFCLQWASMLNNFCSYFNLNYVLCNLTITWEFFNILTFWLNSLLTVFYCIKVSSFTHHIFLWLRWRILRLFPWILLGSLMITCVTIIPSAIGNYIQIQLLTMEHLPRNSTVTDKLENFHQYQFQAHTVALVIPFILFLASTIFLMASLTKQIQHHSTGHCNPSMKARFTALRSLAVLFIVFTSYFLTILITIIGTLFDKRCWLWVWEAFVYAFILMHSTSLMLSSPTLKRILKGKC
As to conditions: response to salicin; cited from earlier work.

The test system of assay [6] is C57B/6L wild-type sperm. Briefly: Bitter blocker probenecid on calcium responses of wild-type mouse sperm. It is filed as cell-based. As to conditions: for effect of blocker on response to PTC: preincubation 5 min, 0.3 mM PTC; for response to PTC after wash-off of blocker: after wash-off of 1 mM probenecid. The procedure: as §1, §2
To confirm whether the germ cells' responses to bitter tastants were mediated by the bitter taste receptors, we examined the effect of the bitter taste receptor blocker probenecid (Greene et al, 2001) and nullification of the α-gustducin gene in Gnat3 α-gustducin knockout mice described in Wong et al, 1996. Probenecid is known to inhibit the responses of human T2R16, 38 and 43 to salicin, PTC and PROP, and aloin, but not that of T2R31 to saccharin (Greene et al, 2011).

In the case of `CC(C)(O)[C@@H]1[C@H]2OC(=O)[C@@H]1[C@]1(O)C[C@H]3O[C@]34C(=O)O[C@H]2[C@]14C` [picrotin], the figures for the EC50 in assay [1] and in assay [2] were 20 ± 10 µM and 18 µM, respectively.

For the molecule `CCCN(CCC)S(=O)(=O)c1ccc(C(=O)O)cc1` [probenecid], the “inhibition of receptor response” value in assay [3], in assay [4] and in assay [5] was “inhibit” throughout. For the same molecule, the “effect of blocker on response to cycloheximide” value in assay [6] (1 mM probenecid) is “did not block; also recorded: no inhibitory effect”. Moreover, the “effect of blocker on response to PTC” value in assay [6] (1 mM probenecid) is “nearly undetectable”; in assay [6] (1 mM probenecid, listed as prebenecid) it was “nearly completely suppressed”. Also, the “response to PTC after wash-off of blocker” value in assay [6] is given as “partially recovered”; in assay [6] (listed as prebenecid), “restored”.

By EC50 is commonly meant the concentration giving half of the maximal effect.
